Data as given in US10669238B2, “Irreversible bruton's tyrosine kinase inhibitor” (HEFEI INSTITUTES OF PHYSICAL SCIENCE, CHINESE ACADEMY OF …, priority 2016, dated 2020).

Tests used:
BTK C481S = biological target: T1, BTK C481S (Homo sapiens, UniProt Q06187, C481S); experiment: Btk cell-free kinase assay, BTK C481S mutant protein; type: biochemical; conditions: compound 30 mins at room temperature, then 100 μM ATP 20 min at 37° C.; read-out: EC50 against BTK C481S
T1 construct: made in house; host or cells: SF9 insect cells
T1 sequence (Q06187 whole entry C481S): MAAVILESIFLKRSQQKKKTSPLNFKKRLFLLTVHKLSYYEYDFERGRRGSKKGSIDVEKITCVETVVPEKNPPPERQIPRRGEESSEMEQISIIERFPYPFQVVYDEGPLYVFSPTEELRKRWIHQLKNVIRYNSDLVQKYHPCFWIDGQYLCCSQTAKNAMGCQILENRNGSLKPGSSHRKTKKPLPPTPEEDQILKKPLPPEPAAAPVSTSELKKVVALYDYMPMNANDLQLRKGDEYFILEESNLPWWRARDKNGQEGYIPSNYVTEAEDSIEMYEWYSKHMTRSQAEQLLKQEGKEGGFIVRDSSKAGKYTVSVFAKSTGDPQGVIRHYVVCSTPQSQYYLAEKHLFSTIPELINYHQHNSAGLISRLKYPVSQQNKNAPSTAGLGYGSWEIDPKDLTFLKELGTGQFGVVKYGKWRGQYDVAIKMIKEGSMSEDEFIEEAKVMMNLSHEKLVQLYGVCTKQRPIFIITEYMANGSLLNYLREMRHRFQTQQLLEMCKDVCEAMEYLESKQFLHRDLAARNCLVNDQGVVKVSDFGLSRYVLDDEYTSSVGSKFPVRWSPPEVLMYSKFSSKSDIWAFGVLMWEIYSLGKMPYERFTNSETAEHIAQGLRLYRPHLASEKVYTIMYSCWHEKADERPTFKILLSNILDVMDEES
Text: (§1) The BTK wild-type plasmid and the BTK mutant plasmid (C481S) were respectively transfected into SF9 cells (purchased from invitrogen), and after three generations of virus amplification, the P3-generation virus was used to transfect SF9 cells which were collected after 72-hour culture to obtain protein BTK WT and protein BTK C481S, which were then purified.

BTK protein kinase = BTK protein kinase (Homo sapiens, UniProt Q06187); experiment: In vitro enzymatic activity against BTK (ADP-Glo); type: biochemical; conditions: compound with BTK 4 hours at room temperature, ATP 10 μM, 37° C. 1 hour
Chain of BTK protein kinase (Q06187 whole entry): as the sequence (Q06187 whole entry C481S) above, with S481C counted along it
How it was run: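 BTK (1.5 ng/μL enzyme solution) was preincubated with compound (final 10 μM to 0.003 μM) for 4 h at room temperature. Reaction ran 1 h at 37 °C with 10 μM ATP and 0.2 μg/μL poly(Glu,Tyr) 4:1 (final). ADP formed was measured by ADP-Glo luminescence, and IC50 was obtained by curve plotting.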

BTK WT = BTK WT (Homo sapiens, UniProt Q06187); experiment: Btk cell-free kinase assay, BTK WT protein; type: biochemical; conditions: compound 30 mins at room temperature, then 100 μM ATP 20 min at 37° C.; read-out: EC50 against BTK WT protein
Chain of BTK WT (Q06187 whole entry): as the sequence (Q06187 whole entry C481S) above, with S481C counted along it
Text: as §1

[1] = tested on: phosphorylation of tyrosine Y223 on Btk; experiment: Effects on BTK Y223 and downstream signaling pathway proteins in cells (anti-IgM stimulation); type: cell-based, human; conditions: Compound 1 in MEC-2, Pfeiffer, Ramos, TMD8, U2932; Compound 35 in MEC-1; 4 hours, then anti-IgM 10 mins
Text: By assaying a number of cellular biochemical and functional endpoints, the properties of the compounds were further characterized. […] In this experiment, PC132765 (purchased from Shanghai Haoyuan Chemexpress Co., Ltd.), CGI11746 (purchased from Shanghai Haoyuan Chemexpress Co., Ltd.) and Compound 6 (prepared herein) were used as control (see FIGS. 2a-2f).
Effects of the compounds on phosphorylation of BTKY223, BTKY551, PLCγ1Y783, PLCγ2Y759, PLCγ2Y1217, P—NF-κB P65, P-AKT Ser473, Erk Thr202/Tyr204 and the like were determined (FIGS. 2a-2f).

[2] = tested on: diffuse large B-cell lymphoma cell lines TMD8; experiment: Cell proliferation (Cell Titer-Glo), TMD8; type: cell-based; conditions: Homo sapiens, TMD8, 72 h, read-out: Effects on cell proliferation (GI50)
Text: The following cells were adopted in the example: acute myelocytic leukemia cell strains (acute myelocytic leukemia, AML) HL-60, B-lymphoma cell Ramos, colon cancer cells HCT116, leukemic cells K562, B-cell lymphoma cells U2932, diffuse large B-cell lymphoma cell line OCI-LY10, diffuse histiocytic lymphoma cells SU-DHL-2, diffuse large B-cell lymphoma cell lines TMD8, leukemia cell OCI-AML-3, acute promyelocytic leukemia cell line NB-4 (Lu+), MDS-RAEB (myelodysplastic syndrome—excessive blasts) cell lines SKM-1, human leukocyte leukemia cells HEL, acute myeloid leukemia cell lines (acute myelocytic leukemia, AML) U937, acute myeloid leukemia cell lines (acute myelocytic leukemia, AML) MOLM14, acute myeloid leukemia cell lines (acute myelocytic leukemia, AML) MOLM13, acute myeloid leukemia cell lines (acute myelocytic leukemia, AML) M-07e, acute myeloid leukemia cell lines (acute myelocytic leukemia, AML) MV4-11, acute myeloid leukemia cell lines (acute myelocytic leukemia, AML) MOLM16, diffuse large B-cell lymphoma cell lines Pfeiffer, multiple myeloma cell lines (multiple myeloma) RPM18226, bone marrow plasma cell tumor cells AMO-1, mouse pro-B cells BaF3, all purchased from ATCC.
In this example different concentrations (0.000508 μM, 0.00152 μM, 0.00457 μM, 0.0137 μM, 0.0411 μM, 0.123 μM, 0.370 μM, 1.11 μM, 3.33 μM, 10 μM) of Compound 1 and Compound 6 were respectively added into the above cells which were then cultured for 72 hours. The number of viable cells was determined via quantitative determination of ATP in living cells by using Cell Titer-Glo® (Promega, the USA) Chemical Luminescent Cell Viability Assay kit.

IC50 (BTK protein kinase; values in nM) [nM]	SMILES	other results
104	C=CC(=O)Nc1cc(Nc2cc(-c3cccc(NC(=O)c4ccc(C(F)(F)F)cc4)c3C)cn(C)c2=O)ccc1C(=O)N1CCOCC1 [Compound 60, N-(3-(5-((3-acrylamide-4-(morpholin-4-carbonyl)phenyl)amino)-1-methyl-6-oxo-1,6-dihydropyridin-3-yl)-2-methylphenyl)-4-(trifluoromethyl)benzoylamide]	–
646	CCC(=O)Nc1cc(Nc2cc(-c3cccc(NC(=O)c4ccc(N(C)C)cc4)c3C)cn(C)c2=O)ccc1C(=O)N1CCOCC1 [Compound 37, N-(3-(5-((3-propanamide-4-(morpholin-4-carbonyl)phenyl)amino)-1-methyl-6-oxo-1,6-dihydropyridin-3-yl)-2-methylphenyl)-4-(dimethylamino)benzo]	–
180	C=CC(=O)Nc1cc(Nc2cc(-c3cccc(NC(=O)c4ccc(C5CC5)cc4)c3C)cn(C)c2=O)ccc1C(=O)N1CCOCC1 [Compound 66, N-(3-(5-((3-acrylamide-4-(morpholin-4-carbonyl)phenyl)amino)-1-methyl-6-oxo-1,6-dihydropyridin-3-yl)-2-methylphenyl)-4-cyclopropylbenzoylamide]	–
89	C=CC(=O)Nc1cc(Nc2cc(-c3cccc(NC(=O)c4ccc(N(C)C)cc4)c3C)cn(C)c2=O)ccc1C(=O)NC1CCOCC1 [Compound 51, 2-acrylamide-4-((5-(3-(4-(dimethylamino)benzoylamide)-2-methylphenyl)-1-methyl-2-oxo-1,2-dihydropyridin-3-yl)amino)-N-(tetrahydro-2H-pyran-4-yl)benzoylamide]	–
9.9	C=CC(=O)Nc1cc(Nc2cc(-c3cccc(NC(=O)c4cc5c(s4)CCCC5)c3C)cn(C)c2=O)ccc1-n1cccn1 [Compound 86, N-(3-(5-((3-acrylamide-4-(1H-pyrazol-1-yl)phenyl)amino)-1-methyl-6-oxo-1,6-dihydropyridin-3-yl)-2-methylphenyl)-4,5,6,7-tetrahydrobenzo[b]thiophene-2-carboxamide]	–

Further lines, the compound ahead of its results:

SMILES	IC50 (BTK protein kinase; values in nM) [nM]	other results
C=CC(=O)Nc1cc(Nc2cc(-c3cccc(NC(=O)c4ccc(N(C)C)cc4)c3C)cn(C)c2=O)ccc1C(=O)N1CCOCC1 [Compound 35, N-(3-(5-((3-acrylamide-4-(morpholin-4-carbonyl)phenyl)amino)-1-methyl-6-oxo-1,6-dihydropyridin-3-yl)-2-methylphenyl)-4-(dimethylamino)benzoylamide]	5	EC50 (BTK C481S): 186 nM; EC50 (BTK WT): 16 nM; phosphorylation of tyrosine Y223 on Btk [1]: selectively and significantly inhibit phosphorylation of tyrosine Y223 on Btk
Cc1c(NC(=O)c2ccc(C(C)(C)C)cc2)cccc1-c1cn(C)c(=O)c(Nc2ccc(C(=O)N3CCOCC3)cc2)n1 [CGI1746, reference compound]	–	GI50 [2]: 126 nM
C=CC(=O)Nc1cc(Nc2cc(-c3cccc(NC(=O)c4cc5ccccc5s4)c3C)cn(C)c2=O)ccc1N1CCN(C)CC1 [Compound 81, N-(3-(5-((3-acrylamide-4-(4-methylpiperazin-1-yl)phenyl)amino)-1-methyl-6-oxo-1,6-dihydropyridin-3-yl)-2-methylphenyl)-benzo[b]thiophene-2-carboxamide]	28.9	–
C=CC(=O)N1CCC[C@@H](n2nc(-c3ccc(Oc4ccccc4)cc3)c3c(N)ncnc32)C1 [PCI32765, reference compound]	–	GI50 [2]: 1 nM
C=CC(=O)Nc1cc(Nc2cc(-c3cccc(NC(=O)c4cc5ccccc5s4)c3C)cn(C)c2=O)ccc1N1CCC(OC)CC1 [Compound 87, N-(3-(5-((3-acrylamide-4-(4-methoxypiperidin-1-yl)phenyl)amino)-1-methyl-6-oxo-1,6-dihydropyridin-3-yl)-2-methylphenyl)benzo[b]thiophene-2-carboxamide]	–	IC50 (BTK protein kinase; value printed in nm): 126 nM
Cc1ccc(Nc2cc(-c3cccc(NC(=O)c4ccc(C(C)(C)C)cc4)c3C)cn(C)c2=O)cc1NC(=O)CCl [Compound 26, N-(3-(5-((3-chloroacetamide-4-methylphenyl)amino)-1-methyl-6-oxo-1,6-dihydropyridin-3-yl)-2-methylphenyl)-4-(tert-butyl)benzamide]	223	–
C=CC(=O)Nc1cc(Nc2cc(-c3cccc(NC(=O)c4cc5c(s4)CCCC5)c3C)cn(C)c2=O)ccc1N1CCN(C)CC1 [Compound 75, N-(3-(5-((3-acrylamide-4-(4-methylpiperazin-1-yl)phenyl)amino)-1-methyl-6-oxo-1,6-dihydropyridin-3-yl)-2-methylphenyl)-4,5,6,7-tetrahydrobenzo[b]thiophene-2-carboxamide]	7	–
C=CC(=O)Nc1cc(Nc2cc(-c3cccc(NC(=O)c4cc5c(s4)CCCC5)c3C)cn(C)c2=O)ccc1N(C)C [Compound 77, N-(3-(5-((3-acrylamide-4-(dimethylamino)phenyl)amino)-1-methyl-6-oxo-1,6-dihydropyridin-3-yl)-2-methylphenyl)-4,5,6,7-tetrahydrobenzo[b]thiophene-2-carboxamide]	101	–
C=CC(=O)Nc1cc(Nc2cc(-c3cccc(NC(=O)c4cc5ccccc5s4)c3C)cn(C)c2=O)ccc1-n1cccn1 [Compound 85, N-(3-(5-((3-acrylamide-4-(1H-pyrazol-1-yl)phenyl)amino)-1-methyl-6-oxo-1,6-dihydropyridin-3-yl)-2-methylphenyl)benzo[b]thiophene-2-carboxamide]	130	–
C=CC(=O)Nc1cc(Nc2cc(-c3cccc(NC(=O)c4ccc(C(C)C)cc4)c3C)cn(C)c2=O)ccc1C(=O)N1CCOCC1 [Compound 64, N-(3-(5-((3-acrylamide-4-(morpholin-4-carbonyl)phenyl)amino)-1-methyl-6-oxo-1,6-dihydropyridin-3-yl)-2-methylphenyl)-4-isopropylbenzoylamide]	22	–
CCC(=O)Nc1cc(Nc2cc(-c3cccc(NC(=O)c4ccc(C(C)(C)C)cc4)c3C)cn(C)c2=O)ccc1C(=O)N1CCNCC1 [Compound 41, N-(3-(5-((3-propanamide-4-(piperazin-1-carbonyl)phenyl)amino)-1-methyl-6-oxo-1,6-dihydropyridin-3-yl)-2-methylphenyl)-4-(tert-butyl)benzamide]	42	–
Cc1c(NC(=O)c2ccc(C(C)(C)C)cc2)cc(NC(=O)CCl)cc1-c1cc(Nc2ccc(C(=O)N3CCOCC3)cc2)c(=O)n(C)c1 [Compound 7, 4-(tert-butyl)-N-(5-(2-chloroacetamide)-2-methyl-3-(1-methyl-5-((4-(morpholin-4-carbonyl)phenyl)amino)-6-oxo-1,6-dihydropyridin-3-yl)phenyl)benzoylamide]	–	IC50 (BTK protein kinase; values given in μM): 1220 nM
C#CC(=O)Nc1cc(C(=O)N2CCOCC2)ccc1Nc1cc(-c2cccc(NC(=O)c3ccc(C(C)(C)C)cc3)c2C)cn(C)c1=O [Compound 4, N-(3-(5-((2-propynamide-4-(morpholin-4-carbonyl)phenyl)amino)-1-methyl-6-oxo-1,6-dihydropyridin-3-yl)-2-methylphenyl)-4-(tert-butyl)benzamide]	32.6	–
C=CC(=O)Nc1cc(Nc2cc(-c3cccc(NC(=O)c4ccc(N(C)C)cc4)c3C)cn(C)c2=O)ccc1C(=O)N1CCCCC1 [Compound 50, N-(3-(5-((3-acrylamide-4-(piperidin-1-carbonyl)phenyl)amino)-1-methyl-6-oxo-1,6-dihydropyridin-3-yl)-2-methylphenyl)-4-(dimethylamino)benzoylamide]	91	–
